Assay results reported in the supplement of paper PMC13380429.

Experiments:
Conditions in all cases: 72 h
Caco-2 [1] = assay: cell viability relative to DMSO; higher = less toxic
Calu-3 [2] = assay: as above
HepG2 [3] = assay: as above
U2OS [4] = assay: as above
Vero E6 [5] = assay: as above
Caco-2 [6] = assay: relative viability EC50 (midpoint between 100% and the lowest measured viability); higher = less toxic
Calu-3 [7] = assay: as above
HepG2 [8] = assay: as above
U2OS [9] = assay: as above
Vero E6 [10] = assay: as above
Caco-2 [11] = assay: drug sensitivity score (DSS) for viability; higher = more toxic; extreme values may be limits of the assay
Calu-3 [12] = assay: as above
HepG2 [13] = assay: as above
U2OS [14] = assay: as above
Vero E6 [15] = assay: as above

SMILES	cell viability (Caco-2 [1]; 1 nM)	cell viability (Caco-2 [1]; 10 nM)	cell viability (Caco-2 [1]; 100 nM)	cell viability (Caco-2 [1]; 1000 nM)	cell viability (Caco-2 [1]; 10000 nM)	cell viability (Calu-3 [2]; 1 nM)	cell viability (Calu-3 [2]; 10 nM)	cell viability (Calu-3 [2]; 100 nM)	cell viability (Calu-3 [2]; 1000 nM)	cell viability (Calu-3 [2]; 10000 nM)	cell viability (HepG2 [3]; 1 nM)	cell viability (HepG2 [3]; 10 nM)	cell viability (HepG2 [3]; 100 nM)	cell viability (HepG2 [3]; 1000 nM)	cell viability (HepG2 [3]; 10000 nM)	cell viability (U2OS [4]; 1 nM)	cell viability (U2OS [4]; 10 nM)	cell viability (U2OS [4]; 100 nM)	cell viability (U2OS [4]; 1000 nM)	cell viability (U2OS [4]; 10000 nM)	cell viability (Vero E6 [5]; 1 nM)	cell viability (Vero E6 [5]; 10 nM)	cell viability (Vero E6 [5]; 100 nM)	cell viability (Vero E6 [5]; 1000 nM)	cell viability (Vero E6 [5]; 10000 nM)	relative viability EC50 (Caco-2 [6])	relative viability EC50 (Calu-3 [7])	relative viability EC50 (HepG2 [8])	relative viability EC50 (U2OS [9])	relative viability EC50 (Vero E6 [10])	drug sensitivity score (Caco-2 [11])	drug sensitivity score (Calu-3 [12])	drug sensitivity score (HepG2 [13])	drug sensitivity score (U2OS [14])	drug sensitivity score (Vero E6 [15])
COc1ccc(NS(=O)(=O)c2ccc(/N=N/c3ccc(O)c(C(=O)O)c3)cc2)nn1 [salazodine]	111%	89.4%	97.4%	95.4%	93.7%	98%	108%	102%	116%	111%	99.6%	97.7%	92.5%	95.1%	96.9%	101%	98%	98.6%	96.2%	102%	105%	108%	95.7%	101%	101%	> 10 µM	> 10 µM	> 10 µM	> 10 µM	> 10 µM	0	0	0	0	0
O=C(Nc1ccc(C(=O)O)c(O)c1)c1ccccc1 [benzoylpas]	93%	97.5%	91.9%	97.5%	92%	94.1%	106%	97.9%	90.3%	91.1%	93.5%	97%	97.7%	98.6%	107%	100%	102%	92.8%	95.9%	101%	99.8%	96.8%	105%	97.4%	103%	> 10 µM	> 10 µM	> 10 µM	> 10 µM	> 10 µM	0	0	0	0	0
O=C(NCc1ccccn1)Nc1nnc(-c2ccco2)o1 [NK-252]	103%	94.6%	103%	91.5%	80.7%	104%	99.9%	94.2%	103%	107%	104%	97.4%	90.4%	77.2%	30.6%	103%	101%	105%	99.3%	103%	94.5%	104%	104%	103%	101%	> 10 µM	> 10 µM	1.47 µM	> 10 µM	> 10 µM	1.4	0	6.5	0	0
CNC1CC(c2ccc(Cl)c(Cl)c2)c2ccccc21 (stereo not given) [indatraline]	99.7%	103%	95%	103%	86.8%	102%	96.3%	93%	107%	89%	97.6%	96%	96.4%	99%	92.7%	100%	102%	94%	102%	90.1%	99.4%	95.4%	96.4%	99.4%	91.7%	> 10 µM	> 10 µM	> 10 µM	> 10 µM	> 10 µM	0.1	0	0	0	0
CC(=O)c1ccc(NS(C)(=O)=O)c(Oc2ccc(F)cc2F)c1 [FK-3311]	99%	90.1%	96.9%	94%	95.8%	110%	93.1%	103%	109%	114%	98.3%	107%	98.6%	99.5%	87.3%	104%	98.1%	98.7%	97.2%	102%	98.3%	101%	96.2%	102%	92.8%	> 10 µM	> 10 µM	> 10 µM	> 10 µM	> 10 µM	0	0	0.1	0	0
C[C@@H]1O[C@@H](O[C@H]2[C@H](Oc3cc(O)c(C(=O)CCc4ccc(O)cc4)c(O)c3)O[C@H](CO)[C@@H](O)[C@@H]2O)[C@H](O)[C@H](O)[C@H]1O [naringin-dihydrochalcone]	94.2%	92.2%	99.5%	102%	96.3%	95.6%	90.9%	92.7%	101%	105%	110%	93.2%	105%	90.9%	101%	93.1%	96.2%	94.2%	102%	95.6%	104%	104%	104%	102%	99.9%	> 10 µM	> 10 µM	> 10 µM	> 10 µM	> 10 µM	0	0	0	0	0
CCNC(=O)/C=C/c1cccc(Br)c1 [cinromide]	99.1%	96.4%	105%	87.2%	92.4%	102%	101%	106%	91.5%	107%	105%	96.5%	106%	97.5%	96.8%	101%	96.7%	99%	96.3%	98.5%	110%	83.6%	97.1%	101%	95.6%	> 10 µM	> 10 µM	> 10 µM	> 10 µM	> 10 µM	0.7	0	0	0	0
COc1ccc(Cc2nccc3cc(OC)c(OC)cc23)cc1OC [papaverine]	95%	91.9%	95.8%	86.1%	77.8%	91.3%	98.8%	98.8%	87.6%	81.2%	111%	109%	92.9%	100%	32.7%	101%	92.5%	99%	96.5%	89.7%	103%	105%	105%	108%	90.1%	> 10 µM	> 10 µM	3.17 µM	> 10 µM	> 10 µM	1.7	1.5	3.7	0	0
O=c1[nH]cnc2c([C@@H]3N[C@H](CO)[C@@H](O)[C@H]3O)c[nH]c12 [forodesine]	103%	98.4%	98.4%	101%	98.6%	92.4%	89%	97.2%	91.5%	94.4%	106%	104%	110%	92.6%	102%	102%	97.6%	94.4%	103%	98%	103%	96.8%	96.8%	97.2%	94.7%	> 10 µM	> 10 µM	> 10 µM	> 10 µM	> 10 µM	0	0	0	0	0
CC1(C)C(=O)NC2=C1C(=O)C(=O)c1ccccc12 [BVT-948]	92.1%	104%	99.6%	86.8%	0.9%	98%	101%	104%	102%	20.3%	97.5%	95.4%	88.7%	94.8%	21.3%	101%	98%	95.8%	100%	0.1%	98.3%	102%	104%	97.9%	19.6%	2.09 µM	3.34 µM	2.63 µM	3.17 µM	2.97 µM	7.7	4.2	5.1	5.6	4.7
Cc1cc(OCc2nnc(SC3CCCC3)n2-c2cccnc2)ccc1-c1ccc(S(C)(=O)=O)cc1 [NMS-873]	102%	101%	83.6%	77.7%	17.8%	88.8%	93.1%	92.1%	85.3%	16.2%	107%	96.2%	61.6%	19.7%	1.5%	97%	98.5%	91.1%	84.6%	0.2%	105%	102%	107%	88%	0.3%	1.64 µM	1.85 µM	0.175 µM	1.96 µM	2.19 µM	7.3	7.1	19.7	8.1	7.5
CC[C@H](C)n1cc(C)c2c(C(=O)NCc3c(C)cc(C)[nH]c3=O)cc(-c3ccc(N4CCNCC4)nc3)cc21	93.9%	101%	102%	102%	95.1%	96.3%	102%	107%	102%	90.9%	98.7%	97.7%	99.1%	99%	87.9%	97.4%	98.2%	98.8%	101%	91.7%	92.3%	99.2%	91.6%	88.2%	98.7%	> 10 µM	> 10 µM	> 10 µM	> 10 µM	> 10 µM	0	0	0.1	0	0
